Biological target: P. falciparum apicoplast DNA polymerase (Pf-apPOL) (Plasmodium falciparum, UniProt Q8ILY1)
Assay: Fluorescence-based high-throughput DNA polymerase assay (molecular beacon), primary screen and dose-response
Type: biochemical
Settings: for DNA Pol: 90 min, 10 µM; for % inhibition Apo pol 10' 2.5 / % inhibition Apo pol 10' 5 / % inhibition Apo pol 10' 10 / % inhibition Apo pol 10' 20 / % inhibition Apo pol 10' 40 / % inhibition Apo pol 10' 80: read at 10'; for % inhibition Apol 90' 2.5 / % inhibition Apol 90' 5 / % inhibition Apol 90' 10 / % inhibition Apol 90' 20 / % inhibition Apol 90' 40 / % inhibition Apol 90' 80 / % inhibition ApPOL 90' 2.5 / % inhibition ApPOL 90' 5 / % inhibition ApPOL 90' 10 / % inhibition ApPOL 90' 20 / % inhibition ApPOL 90' 40 / % inhibition ApPOL 90' 80: read at 90'; for % inhibition apPOL 180' 2.5 / % inhibition apPOL 180' 5 / % inhibition apPOL 180' 10 / % inhibition apPOL 180' 20 / % inhibition apPOL 180' 40 / % inhibition apPOL 180' 80: read at 180'; for % inhibition Apo pol 5' 2.5 / % inhibition Apo pol 5' 5 / % inhibition Apo pol 5' 10 / % inhibition Apo pol 5' 20 / % inhibition Apo pol 5' 40 / % inhibition Apo pol 5' 80: read at 5'; for % inhibition Apol 40' 2.5 / % inhibition Apol 40' 5 / % inhibition Apol 40' 10 / % inhibition Apol 40' 20 / % inhibition Apol 40' 40 / % inhibition Apol 40' 80: read at 40'
Summary of the method: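 Single-point screening used 10 µM compound with 20 nM polymerase, 20 nM hairpin substrate and 6 µM dNTPs for 90 min at 25 °C. Confirmatory titrations (2.5–80 µM) followed fluorescence at three times, and IC50 was derived from a fit including a cooperativity term n.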

[1] = 186 hits, DNA Pol (screen value), unit not given
[2] = 'DNA Pol' (screen value), unit not given

Chain of P. falciparum apicoplast DNA polymerase (Pf-apPOL) (Q8ILY1 entry or part of it): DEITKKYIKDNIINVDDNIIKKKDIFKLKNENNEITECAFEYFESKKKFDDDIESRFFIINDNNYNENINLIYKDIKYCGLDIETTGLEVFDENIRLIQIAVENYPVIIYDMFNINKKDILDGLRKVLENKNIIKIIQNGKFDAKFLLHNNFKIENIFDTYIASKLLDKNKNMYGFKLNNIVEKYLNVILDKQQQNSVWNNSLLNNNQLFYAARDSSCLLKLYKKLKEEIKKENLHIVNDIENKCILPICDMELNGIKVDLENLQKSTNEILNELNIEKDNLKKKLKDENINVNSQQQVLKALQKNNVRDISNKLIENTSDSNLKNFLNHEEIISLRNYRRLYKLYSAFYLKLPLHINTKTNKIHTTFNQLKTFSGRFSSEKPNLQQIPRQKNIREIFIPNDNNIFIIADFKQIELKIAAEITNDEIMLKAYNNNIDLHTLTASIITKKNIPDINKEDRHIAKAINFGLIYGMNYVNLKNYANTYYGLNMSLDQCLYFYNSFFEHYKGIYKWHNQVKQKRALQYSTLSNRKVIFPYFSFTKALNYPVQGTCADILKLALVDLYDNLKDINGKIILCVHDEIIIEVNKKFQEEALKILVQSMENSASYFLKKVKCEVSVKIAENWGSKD

O=C1c2ccccc2C(=O)N1Oc1ccc([N+](=O)[O-])c([N+](=O)[O-])c1 [Molecule 66, O=N(=O)c1cc(ccc1N(=O)=O)ON1C(=O)c2c(C1=O)cccc2]
DNA Pol ('DNA Pol' of the 186 hits list (primary screen value)): 72 | DNA Pol (DNA Pol (primary screen value)): 72 | % inhibition Apo pol 10' (DRC-1, concentration 2.5): 7.12% | % inhibition Apo pol 10' (DRC-1, concentration 5): 12.8299% | % inhibition Apo pol 10' (DRC-1, concentration 10): 14.545% | % inhibition Apo pol 10' (DRC-1, concentration 20): 24.992% | % inhibition Apo pol 10' (DRC-1, concentration 40): 53.6709% | % inhibition Apo pol 10' (DRC-1, concentration 80): 72.2964% | % inhibition Apol 90' (DRC-1, concentration 2.5): 2.278% | % inhibition Apol 90' (DRC-1, concentration 5): 9.738% | % inhibition Apol 90' (DRC-1, concentration 10): 13.1271% | % inhibition Apol 90' (DRC-1, concentration 20): 22.9091% | % inhibition Apol 90' (DRC-1, concentration 40): 49.4397% | % inhibition Apol 90' (DRC-1, concentration 80): 69.1434% | % inhibition apPOL 180' (DRC-1, concentration 2.5): -1.453% | % inhibition apPOL 180' (DRC-1, concentration 5): 3.779% | % inhibition apPOL 180' (DRC-1, concentration 10): 7.291% | % inhibition apPOL 180' (DRC-1, concentration 20): 17.0641% | % inhibition apPOL 180' (DRC-1, concentration 40): 43.6341% | % inhibition apPOL 180' (DRC-1, concentration 80): 66.4384% | % inhibition Apo pol 5' (DRC-2, concentration 2.5): 1.26% | % inhibition Apo pol 5' (DRC-2, concentration 5): 6% | % inhibition Apo pol 5' (DRC-2, concentration 10): 12% | % inhibition Apo pol 5' (DRC-2, concentration 20): 27% | % inhibition Apo pol 5' (DRC-2, concentration 40): 40% | % inhibition Apo pol 5' (DRC-2, concentration 80): 51% | % inhibition Apol 40' (DRC-2, concentration 2.5): 6.34% | % inhibition Apol 40' (DRC-2, concentration 5): 11% | % inhibition Apol 40' (DRC-2, concentration 10): 18% | % inhibition Apol 40' (DRC-2, concentration 20): 35% | % inhibition Apol 40' (DRC-2, concentration 40): 48% | % inhibition Apol 40' (DRC-2, concentration 80): 62% | % inhibition ApPOL 90' (DRC-2, concentration 2.5): 5% | % inhibition ApPOL 90' (DRC-2, concentration 5): 9.49% | % inhibition ApPOL 90' (DRC-2, concentration 10): 17% | % inhibition ApPOL 90' (DRC-2, concentration 20): 36% | % inhibition ApPOL 90' (DRC-2, concentration 40): 50% | % inhibition ApPOL 90' (DRC-2, concentration 80): 66% | % inhibition apPOL 180' (DRC-2, concentration 2.5): 3% | % inhibition apPOL 180' (DRC-2, concentration 5): 5.62% | % inhibition apPOL 180' (DRC-2, concentration 10): 13% | % inhibition apPOL 180' (DRC-2, concentration 20): 32% | % inhibition apPOL 180' (DRC-2, concentration 40): 48% | % inhibition apPOL 180' (DRC-2, concentration 80): 68%

O=C1CSC2=NC3=C(CCc4ccccc43)C(c3cccs3)N12 (centres unmarked) [Molecule 59, O=C1CSC2=NC3=C(C(N12)c1cccs1)CCc1c3cccc1]
DNA Pol [1]: 63 | DNA Pol [2]: 63 | % inhibition Apo pol 10' 2.5 (DRC-1, concentration 2.5): 4.043% | % inhibition Apo pol 10' 5 (DRC-1, concentration 5): 24.0896% | % inhibition Apo pol 10' 10 (DRC-1, concentration 10): 41.1279% | % inhibition Apo pol 10' 20 (DRC-1, concentration 20): 53.1812% | % inhibition Apo pol 10' 40 (DRC-1, concentration 40): 67.0288% | % inhibition Apo pol 10' 80 (DRC-1, concentration 80): 63.2791% | % inhibition Apol 90' 2.5 (DRC-1, concentration 2.5): -1.656% | % inhibition Apol 90' 5 (DRC-1, concentration 5): 10.7696% | % inhibition Apol 90' 10 (DRC-1, concentration 10): 22.0098% | % inhibition Apol 90' 20 (DRC-1, concentration 20): 35.5266% | % inhibition Apol 90' 40 (DRC-1, concentration 40): 60.0258% | % inhibition Apol 90' 80 (DRC-1, concentration 80): 67.4831% | % inhibition apPOL 180' 2.5 (DRC-1, concentration 2.5): -6.428% | % inhibition apPOL 180' 5 (DRC-1, concentration 5): -0.2424% | % inhibition apPOL 180' 10 (DRC-1, concentration 10): 9.04% | % inhibition apPOL 180' 20 (DRC-1, concentration 20): 18.673% | % inhibition apPOL 180' 40 (DRC-1, concentration 40): 46.5795% | % inhibition apPOL 180' 80 (DRC-1, concentration 80): 61.292% | % inhibition Apo pol 5' (DRC-2, concentration 10): 28% | % inhibition Apol 40' (DRC-2, concentration 10): 28% | % inhibition Apol 40' (DRC-2, concentration 40): 45% | % inhibition ApPOL 90' (DRC-2, concentration 40): 45% | % inhibition Apo pol 5' 2.5 (DRC-2, concentration 2.5): 3.73% | % inhibition Apo pol 5' 5 (DRC-2, concentration 5): 15% | % inhibition Apo pol 5' 10 (DRC-2, concentration 10): 28% | % inhibition Apo pol 5' 20 (DRC-2, concentration 20): 33% | % inhibition Apo pol 5' 40 (DRC-2, concentration 40): 31% | % inhibition Apo pol 5' 80 (DRC-2, concentration 80): 23% | % inhibition Apol 40' 2.5 (DRC-2, concentration 2.5): 3% | % inhibition Apol 40' 5 (DRC-2, concentration 5): 14% | % inhibition Apol 40' 10 (DRC-2, concentration 10): 28% | % inhibition Apol 40' 20 (DRC-2, concentration 20): 39% | % inhibition Apol 40' 40 (DRC-2, concentration 40): 45% | % inhibition Apol 40' 80 (DRC-2, concentration 80): 48% | % inhibition ApPOL 90' 2.5 (DRC-2, concentration 2.5): -1.13% | % inhibition ApPOL 90' 5 (DRC-2, concentration 5): 10% | % inhibition ApPOL 90' 10 (DRC-2, concentration 10): 22% | % inhibition ApPOL 90' 20 (DRC-2, concentration 20): 35% | % inhibition ApPOL 90' 40 (DRC-2, concentration 40): 45% | % inhibition ApPOL 90' 80 (DRC-2, concentration 80): 52% | % inhibition apPOL 180' 2.5 (DRC-2, concentration 2.5): -8% | % inhibition apPOL 180' 5 (DRC-2, concentration 5): 2.64% | % inhibition apPOL 180' 10 (DRC-2, concentration 10): 11% | % inhibition apPOL 180' 20 (DRC-2, concentration 20): 24% | % inhibition apPOL 180' 40 (DRC-2, concentration 40): 38% | % inhibition apPOL 180' 80 (DRC-2, concentration 80): 55%

O=C(CCc1csc(NC(=O)Nc2ccccc2)n1)Nc1nc2ccccc2s1 [KU0177354]
DNA Pol [1]: 40 | DNA Pol [2]: 40 | % inhibition Apo pol 10' 2.5 (DRC-1, concentration 2.5): 5.576% | % inhibition Apo pol 10' 5 (DRC-1, concentration 5): 8.503% | % inhibition Apo pol 10' 10 (DRC-1, concentration 10): 43.0217% | % inhibition Apo pol 10' 20 (DRC-1, concentration 20): 76.9078% | % inhibition Apo pol 10' 40 (DRC-1, concentration 40): 79.3304% | % inhibition Apo pol 10' 80 (DRC-1, concentration 80): 82.5837% | % inhibition Apol 90' 2.5 (DRC-1, concentration 2.5): -1.376% | % inhibition Apol 90' 5 (DRC-1, concentration 5): -0.284% | % inhibition Apol 90' 10 (DRC-1, concentration 10): 25.6988% | % inhibition Apol 90' 20 (DRC-1, concentration 20): 59.1025% | % inhibition Apol 90' 40 (DRC-1, concentration 40): 63.1922% | % inhibition Apol 90' 80 (DRC-1, concentration 80): 69.3927% | % inhibition apPOL 180' 2.5 (DRC-1, concentration 2.5): -6.865% | % inhibition apPOL 180' 5 (DRC-1, concentration 5): -6.2% | % inhibition apPOL 180' 10 (DRC-1, concentration 10): 11.7395% | % inhibition apPOL 180' 20 (DRC-1, concentration 20): 39.4261% | % inhibition apPOL 180' 40 (DRC-1, concentration 40): 45.9927% | % inhibition apPOL 180' 80 (DRC-1, concentration 80): 55.8861% | % inhibition Apo pol 5' (DRC-2, concentration 5): -6% | % inhibition Apo pol 5' (DRC-2, concentration 20): 37% | % inhibition Apol 40' (DRC-2, concentration 5): -6% | % inhibition Apol 40' (DRC-2, concentration 10): 46% | % inhibition Apol 40' (DRC-2, concentration 20): 49% | % inhibition Apol 40' (DRC-2, concentration 40): 53% | % inhibition Apol 40' (DRC-2, concentration 80): 49% | % inhibition ApPOL 90' (DRC-2, concentration 40): 53% | % inhibition apPOL 180' (DRC-2, concentration 20): 37% | % inhibition apPOL 180' (DRC-2, concentration 80): 46% | % inhibition Apo pol 5' 2.5 (DRC-2, concentration 2.5): -3.16% | % inhibition Apo pol 5' 5 (DRC-2, concentration 5): -6% | % inhibition Apo pol 5' 10 (DRC-2, concentration 10): 38% | % inhibition Apo pol 5' 20 (DRC-2, concentration 20): 37% | % inhibition Apo pol 5' 40 (DRC-2, concentration 40): 34% | % inhibition Apo pol 5' 80 (DRC-2, concentration 80): 29% | % inhibition Apol 40' 2.5 (DRC-2, concentration 2.5): -3.41% | % inhibition Apol 40' 5 (DRC-2, concentration 5): -6% | % inhibition Apol 40' 10 (DRC-2, concentration 10): 46% | % inhibition Apol 40' 20 (DRC-2, concentration 20): 49% | % inhibition Apol 40' 40 (DRC-2, concentration 40): 53% | % inhibition Apol 40' 80 (DRC-2, concentration 80): 49% | % inhibition ApPOL 90' 2.5 (DRC-2, concentration 2.5): -4% | % inhibition ApPOL 90' 5 (DRC-2, concentration 5): -7% | % inhibition ApPOL 90' 10 (DRC-2, concentration 10): 43% | % inhibition ApPOL 90' 20 (DRC-2, concentration 20): 48% | % inhibition ApPOL 90' 40 (DRC-2, concentration 40): 53% | % inhibition ApPOL 90' 80 (DRC-2, concentration 80): 51% | % inhibition apPOL 180' 2.5 (DRC-2, concentration 2.5): -8% | % inhibition apPOL 180' 5 (DRC-2, concentration 5): -12% | % inhibition apPOL 180' 10 (DRC-2, concentration 10): 32% | % inhibition apPOL 180' 20 (DRC-2, concentration 20): 37% | % inhibition apPOL 180' 40 (DRC-2, concentration 40): 47% | % inhibition apPOL 180' 80 (DRC-2, concentration 80): 46%

Source: article PMC9090415, “Discovery of small molecule inhibitors of Plasmodium falciparum apicoplast DNA polymerase” (Journal of Enzyme Inhibition and Medicinal Chemistry, 2022)
